Test results published in patent publication US4436934A, “Bicyclic prostaglandin analogs and method of synthesis” (Iowa State University Research Foundation, Inc., priority 1981, dated 1984).

Assays:
[1] = tested on: platelet thrombus (laser micro-injury of small blood vessel); settings: cited from earlier work; for inhibition of thrombosis (in words): general statement on potent inhibitors of platelet aggregation
[2] = tested on: platelet thrombus (laser micro-injury of small blood vessel); experiment: biolaser model of experimental thrombosis (rabbit ear chamber); format: in vivo; settings: combined with anagrelide at a lower than threshold level
Text: These compounds were studied in vivo in an animal model for experimental thrombosis. The use of this model is described in detail in the reprint, Use of the Biolaser in the Evaluation of Anti-Thrombotic Agents, J. S. Fleming et al. "Platelets and Thrombosis", eds. S. Sherry and A. Scriabrine, University Park Press, 1974, Baltimore, which is incorporated herein by reference.
In brief, a micro-injury is created by a laser beam focused through a microscope onto the endothelium surface of a small blood vessel in a surgically implanted ear chamber of a rabbit. The injury induces the rapid formation of a platelet thrombis which can be measured. […] Prostacyclin is active in the biolaser model when infused intraveneously. The results of these tests preliminarily indicate that there is a super additive interaction between anagrelide and the compounds of this invention. […] To date, no other compounds have undergone significant in vivo analysis in the rabbit ear test.

CCCCC[C@H](O)/C=C/[C@@H]1[C@H]2C/C(=C/CCCC(=O)O)O[C@H]2C[C@H]1O [prostacyclin]
inhibition of thrombosis (in words) [1]: significant inhibition of this kind of thrombosis | activity in the biolaser model (in words) ([1]; infused intravenously): active

CCCCCC(O)C#CC1C2CCC(C2)C1C/C=C/CCCC(=O)OC (stereo not shown) [Example 2]
reduction in thrombosis, combination with anagrelide (in words) [2]: substantial reduction in thrombosis

O=C1CN2Cc3c(ccc(Cl)c3Cl)N=C2N1 [anagrelide]
inhibition of thrombosis (in words) [1]: significant inhibition of this kind of thrombosis
